Test results: ChEMBL document CHEMBL4382277, “Novel Fluorescence Competition Assay for Retinoic Acid Binding Proteins” (ACS Med Chem Lett, 2018)
pKd: −log10 of the molar value. Active and inactive are the calls of the source. No cut-off for these calls is given here.

What was measured:
[1] = target: T1, Cellular retinoic acid-binding protein 2 (Homo sapiens, UniProt P29373); experiment: Displacement of DC271 from CRABP2 (unknown origin) by fluorescence assay
T1 sequence (P29373 whole entry): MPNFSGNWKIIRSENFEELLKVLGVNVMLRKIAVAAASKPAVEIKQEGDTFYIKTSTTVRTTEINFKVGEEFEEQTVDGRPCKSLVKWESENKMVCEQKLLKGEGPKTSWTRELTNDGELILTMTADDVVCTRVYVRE

[2] = target: T2, Cellular retinoic acid-binding protein 2 (Homo sapiens) (UniProt P29373); experiment: Displacement of DC271 from CRABP2 (unknown origin) at 200 to 1600 nM by fluorescence assay
T2 sequence (whole entry): T1 sequence (P29373 whole entry)

Structure (SMILES)	pKd [1]	inhibition [2]
CC1=C(/C=C/C(C)=C/C=C/C(C)=C/C(=O)O)C(C)(C)CCC1	–	Active
c1ccc2ncccc2c1	–	inactive
CC1=C(/C=C/C(C)=C\C=C\C(C)=C\C(=O)O)C(C)(C)CCC1	–	Active

Further lines, results first:

pKd [1]	inhibition [2]	Structure (SMILES)
6.80	–	CC1(C)CCC(C)(C)c2cc(C#Cc3ccc(C(=O)O)cc3)ccc21
–	inactive	O=C(O)c1ccccc1
–	inactive	CC1=C(/C=C/C(C)=C/C=C/C(C)=C\C(=O)O)C(C)(C)CCC1
